For 29 compounds, EC50 and melting point results are on record in patent US20220089609A1, “SUBSTITUTED QUINAZOLINONE DERIVATIVES AND THEIR USE AS POSITIVE ALLOSTERIC MODULATORS OF MGLUR4” (DOMAIN THERAPEUTICS, priority 2018, published 2022).

The structures appear in SMILES notation. Structures can show the parent of a compound that is named as a salt.

One data set deals with T1, human mGluR4 (hmGluR4) (Homo sapiens, UniProt Q14833).
T1 construct: expressed in transfected cells; host or cells: HEK-293 cells, transient co-transfection by electroporation
The data set can be described thus: Calcium assay EC50 determination, positive allosteric modulator activity on hmGluR4 transiently over-expressed in HEK-293 cells. The format is cell-based. The settings on record: PAM mode with EC20 glutamate; hmGluR4 in HEK-293 cells; intracellular calcium (Fluo4AM); read-out: mGluR4 positive allosteric modulator activity, half maximal effective concentration (EC50). An outline of the steps: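 HEK-293 cells transiently co-transfected with hmGluR4, chimeric G protein and glutamate transporters; Fluo4AM calcium read (ex 485/em 525 nm) on FLIPR Tetra. Compound alone 10 min for agonism, then EC20 glutamate with 3 min recording for PAM activity, versus buffer or EC20 glutamate basal.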

T1 sequence (Q14833 33-912): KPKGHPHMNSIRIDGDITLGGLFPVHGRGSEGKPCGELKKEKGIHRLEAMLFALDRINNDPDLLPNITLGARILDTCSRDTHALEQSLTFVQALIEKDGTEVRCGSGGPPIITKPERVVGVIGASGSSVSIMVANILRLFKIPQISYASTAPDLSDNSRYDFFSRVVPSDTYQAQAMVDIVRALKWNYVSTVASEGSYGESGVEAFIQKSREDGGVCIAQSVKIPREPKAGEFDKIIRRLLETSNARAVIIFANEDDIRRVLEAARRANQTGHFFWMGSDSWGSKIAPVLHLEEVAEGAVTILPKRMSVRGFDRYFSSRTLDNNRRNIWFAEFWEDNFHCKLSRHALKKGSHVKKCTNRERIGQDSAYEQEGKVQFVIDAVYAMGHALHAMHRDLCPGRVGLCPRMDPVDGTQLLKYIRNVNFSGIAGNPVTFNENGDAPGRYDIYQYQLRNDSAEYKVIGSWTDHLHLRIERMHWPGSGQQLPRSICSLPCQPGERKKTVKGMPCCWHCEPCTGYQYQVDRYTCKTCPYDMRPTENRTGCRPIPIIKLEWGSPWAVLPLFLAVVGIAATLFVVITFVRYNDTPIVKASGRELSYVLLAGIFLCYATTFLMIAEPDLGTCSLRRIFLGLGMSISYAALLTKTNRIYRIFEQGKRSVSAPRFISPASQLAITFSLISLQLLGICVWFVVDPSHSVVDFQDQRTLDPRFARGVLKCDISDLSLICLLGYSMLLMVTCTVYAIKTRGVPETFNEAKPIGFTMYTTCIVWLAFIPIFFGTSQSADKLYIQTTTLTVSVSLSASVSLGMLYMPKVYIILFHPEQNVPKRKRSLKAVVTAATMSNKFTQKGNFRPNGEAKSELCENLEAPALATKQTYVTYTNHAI

The term melting point denotes the temperature, or range, at which the solid turns liquid. As for `COc1cnccc1CCCOc1ccc2nc(-c3cc4ccsc4cn3)[nH]c(=O)c2c1.Cl` [Compound 62, 6-[3-(3-Methoxy-pyridin-4-yl)-propoxy]-2-thieno[2,3-c]pyridin-5-yl-3H-quinazolin-4-one hydrochloride], the melting point was in the range of 250 to 251 °C. Also, the EC50 at human mGluR4 (hmGluR4) was in the range of 100 to 1000 nM.

As for `Cc1cc(CCN2CCCCC2)cc2c(=O)[nH]c(-c3cnc4sccc4c3)nc12.Cl` [Compound 128, 8-Methyl-6-(2-piperidin-1-yl-ethyl)-2-thieno[2,3-b]pyridin-5-yl-3H-quinazolin-4-one hydrochloride], the melting point is greater than 250 °C. In addition, the EC50 at human mGluR4 (hmGluR4) was 1000 to 10000 nM.

As for `CCC(=O)N1CCC(COc2ccc3nc(-c4cc5ccsc5cn4)[nH]c(=O)c3c2)CC1` [Compound 48, 6-(1-Propionyl-piperidin-4-ylmethoxy)-2-thieno[2,3-c]pyridin-5-yl-3H-quinazolin-4-one], the melting point lay in the range of 234 to 239 °C. In addition, the EC50 at human mGluR4 (hmGluR4) fell in the range of 100 to 1000 nM.

Consider `Cl.O=c1[nH]c(-c2ccc(C(F)(F)F)cn2)nc2ccc(OCCCc3ccncc3)cc12` [Compound 10, 6-[3-(4-pyridyl)propoxy]-2-[5-(trifluoromethyl)-2-pyridyl]-3H-quinazolin-4-one hydrochloride], for which the melting point was greater than 250 °C. Also, the EC50 at human mGluR4 (hmGluR4) was in the range of 100 to 1000 nM.

Turning to `Cl.O=c1[nH]c(-c2ccc(F)cn2)nc2ccc(OCCCc3ccncc3)cc12` [Compound 8, 2-(5-Fluoro-pyridin-2-yl)-6-(3-pyridin-4-yl-propoxy)-3H-quinazolin-4-one hydrochloride], the melting point is greater than 250 °C. For the same compound, at human mGluR4 (hmGluR4), the EC50 lay within 1000 to 10000 nM.

In turn, `Cc1cc(CCN2C3CCC2COC3)cc2c(=O)[nH]c(-c3cc(C(F)(F)F)ccn3)nc12.Cl` [Compound 163, 6-(2-(3-oxa-8-azabicyclo[3.2.1]octan-8-yl)ethyl)-8-methyl-2-(4-(trifluoromethyl)pyridin-2-yl)quinazolin-4(3H)-one hydrochloride] came in with a melting point of 200 to 250 °C. For the same compound, at human mGluR4 (hmGluR4), the EC50 is no more than 100 nM.

Turning to `Cc1cc(OC2CCC(=O)N(C)C2)cc2c(=O)[nH]c(-c3cc(C(F)(F)F)ccn3)nc12` (stereo not shown) [Compound 136, 8-Methyl-6-(1-methyl-6-oxo-piperidin-3-yloxy)-2-(4-trifluoromethyl-pyridin-2-yl)-3H-quinazolin-4-one], the melting point was greater than 250 °C. Further, at human mGluR4 (hmGluR4), the EC50 was no more than 100 nM.

As for `COCCOc1ccc2nc(-c3cc4cccn4cn3)[nH]c(=O)c2c1` [Compound 34, 6-(2-Methoxy-ethoxy)-2-pyrrolo[1,2-c]pyrimidin-3-yl-3H-quinazolin-4-one], the melting point was in the range of 181 to 187 °C. In addition, the EC50 at human mGluR4 (hmGluR4) is greater than 10000 nM.

The compound `Cc1cc(CN2CCCC2)cc2c(=O)[nH]c(-c3cc4sccc4cn3)nc12.Cl` [Compound 139, 8-Methyl-6-(pyrrolidin-1-ylmethyl)-2-thieno[3,2-c]pyridin-6-yl-3H-quinazolin-4-one hydrochloride] returned a melting point greater than 250 °C. The EC50 on human mGluR4 (hmGluR4) lay in the range of 1000 to 10000 nM.

`COCCOc1ccc2nc(-c3cc4sccc4cn3)[nH]c(=O)c2c1` [Compound 36, 6-(2-Methoxy-ethoxy)-2-thieno[3,2-c]pyridin-6-yl-3H-quinazolin-4-one] came in with a melting point of 209 to 213 °C. Moreover, the EC50 on human mGluR4 (hmGluR4) was greater than 10000 nM.

For the compound `Cc1cc(CN2CCCCC2)cc2c(=O)[nH]c(-c3cc4ccsc4cn3)nc12.Cl` [Compound 131, 8-Methyl-6-(1-piperidylmethyl)-2-thieno[2,3-c]pyridin-5-yl-3H-quinazolin-4-one hydrochloride], the melting point fell in the range of 233 to 240 °C. Moreover, the EC50 on human mGluR4 (hmGluR4) is 100 to 1000 nM.

In turn, `Cl.O=c1[nH]c(-c2cc3ccccc3cn2)nc2ccc(OCCCc3ccncc3)cc12` [Compound 2, 2-Isoquinolin-3-yl-6-(3-pyridin-4-yl-propoxy)-3H-quinazolin-4-one hydrochloride] showed a melting point greater than 250 °C. Further, the EC50 on human mGluR4 (hmGluR4) fell in the range of 1000 to 10000 nM.

With `COCCN(C)Cc1cc(C)c2nc(-c3cc4sccc4cn3)[nH]c(=O)c2c1.Cl` [Compound 151, 6-(((2-Methoxyethyl)(methyl)amino)methyl)-8-methyl-2-(thieno[3,2-c]pyridin-6-yl)quinazolin-4(3H)-one hydrochloride], the melting point fell in the range of 205 to 215 °C. The EC50 on human mGluR4 (hmGluR4) was in the range of 100 to 1000 nM.

For the compound `Cc1cc(CN2CCN(C)C(=O)C2)cc2c(=O)[nH]c(-c3cc(C(F)(F)F)ccn3)nc12.Cl` [Compound 161, 8-Methyl-6-((4-methyl-3-oxopiperazin-1-yl)methyl)-2-(4-(trifluoromethyl)pyridin-2-yl)quinazolin-4(3H)-one hydrochloride], the melting point was greater than 250 °C. Further, the EC50 on human mGluR4 (hmGluR4) was in the range of 100 to 1000 nM.

On to `Cc1cc(N2CCC3(CCOCC3)CC2)cc2c(=O)[nH]c(-c3cc4sccc4cn3)nc12` [Compound 120, 8-Methyl-6-(3-oxa-9-azaspiro[5.5]undecan-9-yl)-2-(thieno[3,2-c]pyridin-6-yl)quinazolin-4(3H)-one], for which the melting point was greater than 250 °C. Also, the EC50 on human mGluR4 (hmGluR4) is no more than 100 nM.

Compound `Cc1cc(CCN2CCOC(C)(C)C2)cc2c(=O)[nH]c(-c3cc(C(F)(F)F)ccn3)nc12.Cl` [Compound 160, 6-(2-(2,2-dimethylmorpholino)ethyl)-8-methyl-2-(4-(trifluoromethyl)pyridin-2-yl)quinazolin-4(3H)-one hydrochloride] gave a melting point of 106 to 116 °C. For the same compound, at human mGluR4 (hmGluR4), the EC50 was no more than 100 nM.

On to `CCC(=O)N1CC(Oc2cc(C)c3nc(-c4cc5ccsc5cn4)[nH]c(=O)c3c2)C1` [Compound 116, 8-methyl-6-(1-propanoylazetidin-3-yl)oxy-2-thieno[2,3-c]pyridin-5-yl-3H-quinazolin-4-one], for which the melting point was in the range of 230 to 240 °C. At human mGluR4 (hmGluR4), the EC50 is 100 to 1000 nM.

`COc1ccnc(-c2nc3ccc(OCCCc4ccncc4)cc3c(=O)[nH]2)c1.Cl` [Compound 7, 2-(4-methoxy-pyridin-2-yl)-6-(3-pyridin-4-yl-propoxy)-3H-quinazolin-4-one hydrochloride] registered a melting point greater than 250 °C. Moreover, at human mGluR4 (hmGluR4), the EC50 lay in the range of 1000 to 10000 nM.

`Cc1cc(CCN2CCS(=O)(=O)CC2)cc2c(=O)[nH]c(-c3cc4sccc4cn3)nc12` [Compound 149, 6-(2-(1,1-Dioxidothiomorpholino)ethyl)-8-methyl-2-(thieno[3,2-c]pyridin-6-yl)quinazolin-4(3H)-one] yielded a melting point of 200 to 212 °C. In addition, at human mGluR4 (hmGluR4), the EC50 is no more than 100 nM.

For the compound `Cc1cc(CCN2CC3CCC(C2)O3)cc2c(=O)[nH]c(-c3cc(C(F)(F)F)ccn3)nc12.Cl` [Compound 162, 6-(2-(8-Oxa-3-azabicyclo[3.2.1]octan-3-yl)ethyl)-8-methyl-2-(4-(trifluoromethyl)pyridin-2-yl)quinazolin-4(3H)-one hydrochloride], the melting point is 160 to 170 °C. Moreover, the EC50 at human mGluR4 (hmGluR4) is no more than 100 nM.

`Cc1cc(CCN2CC3(COC3)C2)cc2c(=O)[nH]c(-c3cc4ccsc4cn3)nc12` [Compound 145, 8-Methyl-6-[2-(2-oxa-6-azaspiro[3.3]heptan-6-yl)ethyl]-2-thieno[2,3-c]pyridin-5-yl-3H-quinazolin-4-one] came in with a melting point of 220 to 225 °C. The EC50 at human mGluR4 (hmGluR4) was in the range of 1000 to 10000 nM.

As for `Cc1cc(CN2CCCC2)cc2c(=O)[nH]c(-c3cc4ccsc4cn3)nc12.Cl` [Compound 133, 8-Methyl-6-(pyrrolidin-1-ylmethyl)-2-thieno[2,3-c]pyridin-5-yl-3H-quinazolin-4-one hydrochloride], the melting point was greater than 250 °C. Besides, the EC50 on human mGluR4 (hmGluR4) is 1000 to 10000 nM.

`Cc1cc(CC(=O)N2CCCOCC2)cc2c(=O)[nH]c(-c3cc4ccsc4cn3)nc12` [Compound 138, 8-Methyl-6-[2-(1,4-oxazepan-4-yl)-2-oxo-ethyl]-2-thieno[2,3-c]pyridin-5-yl-3H-quinazolin-4-one] showed a melting point of 215 to 220 °C. Also, on human mGluR4 (hmGluR4), the EC50 is no more than 100 nM.

Take `COCCN(C)CCc1cc(C)c2nc(-c3cc4sccc4cn3)[nH]c(=O)c2c1.Cl` [Compound 148, 6-(2-((2-Methoxyethyl)(methyl)amino)ethyl)-8-methyl-2-(thieno[3,2-c]pyridin-6-yl)quinazolin-4(3H)-one hydrochloride]: the melting point lay within 149 to 162 °C. Moreover, the EC50 on human mGluR4 (hmGluR4) is 1000 to 10000 nM.

For `Cl.O=c1[nH]c(-c2cc(C(F)(F)F)ccn2)nc2ccc(OCCCc3ccncc3)nc12` [Compound 67, 6-(3-Pyridin-4-yl-propoxy)-2-(4-trifluoromethyl-pyridin-2-yl)-3H-pyrido[3,2-d]pyrimidin-4-one hydrochloride], the melting point is greater than 250 °C. Also, the EC50 at human mGluR4 (hmGluR4) lay in the range of 100 to 1000 nM.

For the compound `Cc1cc(CC(=O)N2CCOCC2)cc2c(=O)[nH]c(-c3cc4ccsc4cn3)nc12` [Compound 127, 8-Methyl-6-(2-morpholino-2-oxo-ethyl)-2-thieno[2,3-c]pyridin-5-yl-3H-quinazolin-4-one], the melting point is greater than 250 °C. The EC50 on human mGluR4 (hmGluR4) lay within 100 to 1000 nM.

Compound `Cc1cc(CN2CCC(C(=O)N(C)C)CC2)cc2c(=O)[nH]c(-c3cc4sccc4cn3)nc12` (as salt: hydrochloride) [Compound 156, N,N-Dimethyl-14(8-methyl-4-oxo-2-(thieno[3,2-c]pyridin-6-yl)-3,4-dihydroquinazolin-6-yl)methyl)piperidine-4-carboxamide hydrochloride] had a melting point of 215 to 230 °C.

For `Cl.O=c1[nH]c(-c2cc3ccsc3cn2)nc2ccc(OCCCc3ccncc3)cc12` [Compound 4], the melting point is greater than 250 °C.

Turning to `Cc1cccc(-c2nc3ccc(OCCCc4ccncc4)cc3c(=O)[nH]2)n1` (as salt: hydrochloride) [Compound 12, 2-(6-methyl-2-pyridyl)-6-[3-(4-pyridyl)propoxy]-3H-quinazolin-4-one dihydrochloride], the melting point was greater than 250 °C.
